The numbers were not newly measured in paper PMC12238501 (Scientific Reports, 2025), which cites them from elsewhere.

Regarding `Oc1ccc(C=Cc2cc(O)cc(O)c2)cc1` [Resveratrol, 3,4’,5-trihydroxystilbene], the Solubility in water result is listed as “low solubility in water”.
